Results on 84 compounds are retold here after PubChem BioAssay AID1959 (Broad Institute, 2009).

A word on the EC50: it is the concentration needed to bring the measured effect to its halfway point.

Activity calls are given as the source filed them.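 Rule for the calls: active = growth-inhibition EC50 no more than tenfold above the top tested dose; inconclusive = flat fit between 30% and 70% inhibition, or unreliable fit; inactive = EC50 more than tenfold above the top tested dose.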 Bounds are passed on as bounds.

In this experiment the test system is E. coli NEB5alpha growth, BacTiter-Glo luminescence, 4 h. Nature of the experiment: antibacterial activity against E. coli NEB5alpha – luminescence, counter-screen for MEX-5/POS-1 RNA-binding inhibitor project, dose response (AID 1959).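 Note: pUC19-transformed ampicillin-resistant cells grown in LB with ampicillin.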 For orientation: Counterscreens check selectivity or assay interference.
Turning to `CCCNS(=O)(=O)c1ccc(CCC(=O)NCc2ccc3c(c2)OCO3)cc1`, the EC50 was > 11 µM (inactive).

`COc1ccccc1C(=O)Nc1ccnn1C1CCN(C(C)CSC)CC1` (centres undefined): the EC50 is > 11 µM (inactive).

With `CC(C)COc1ccc(/C=C2/Sc3ccccc3C2=O)cc1`, the EC50 is > 11 µM (inactive).

With `CC(C)C1Nc2c(O)cc(Cl)c([N+](=O)[O-])c2C2C=CCC21` (centres undefined), the EC50 was > 11 µM (inactive).

For the compound `N#Cc1c(-c2ccc(Cl)cc2)c2c([nH]c1=O)-c1ccccc1OC2`, the EC50 was > 11 µM (inactive).

As to `COC(=O)C1=COC(C)C2CN3CCc4c([nH]c5cc(OC)c(OC)cc45)C3CC12` (centres undefined), the EC50 is > 11 µM (inactive).

Take `Cc1cc(C)c2c(c1)C1C=CCC1C(c1ccc(S(=O)(=O)N3CCOCC3)cc1)N2` (centres undefined): the EC50 is > 11 µM (inactive).

Turning to `O=C1c2ccccc2C(=O)C1c1ccc2ccccc2n1`, the EC50 is > 11 µM (inactive).

Take `S=C1NC2(CCS1)Oc1ccccc1C1CC(c3ccccc3)=NN12` (centres undefined): the EC50 was > 11 µM (inactive).

On to `Brc1cc2c(cc1C1Nc3ccccc3C3C=CCC31)OCO2` (centres undefined), for which the EC50 is > 11 µM (inactive).

On to `Cc1cc2oc(=O)c(CC(=O)NCCCO)c(C)c2c2occ(C(C)(C)C)c12`, for which the EC50 was > 11 µM (inactive).

For `CC1=NN(c2ccc(C(=O)O)c(N)c2)C(=O)C1`, the EC50 was > 11 µM (inactive).

Consider `CC(=O)Nc1ccc(N=Cc2nc(-c3ccc(C)cc3)oc2O)cc1`, for which the EC50 is > 11 µM (inactive).

On to `O=C(N[C@H]1CP(=O)(Oc2ccccc2)O[C@H](COCc2ccccc2)[C@H]1O)C(Cl)(Cl)Cl` (some centres undefined), for which the EC50 is > 11 µM (inactive).

Take `COC(=O)c1ccc(C23CC4(C2)[C@H](CN(Cc2ccc(C(F)(F)F)cc2)[C@@H]4c2ccccc2)C3c2ccccc2)cc1` (some centres undefined): the EC50 was > 11 µM (inactive).

Regarding `Cc1c(C(=O)O)cccc1-n1c(C)cc(/C=C2\C(=O)NC(=O)N(c3ccc4c(c3)OCO4)C2=O)c1C`, the EC50 is > 11 µM (inactive).

As for `O=C(O)c1cccc(-n2cccc2/C=N/O)c1`, the EC50 is > 11 µM (inactive).

For the compound `O=C(NNS(=O)(=O)c1ccc([N+](=O)[O-])cc1)C(=O)Nc1cccc(C(=O)O)c1`, the EC50 was > 11 µM (inactive).

For the compound `O=[N+]([O-])c1ccc(Nc2ccccc2O)c2nonc12`, the EC50 was > 11 µM (inactive).

As for `N#CC1=C(N)OC2=C(C(=O)CCC2)C1c1cc2c(cc1Br)OCO2` (centres undefined), the EC50 is > 11 µM (inactive).

`COc1ccc(N2C(=O)C(Cl)=C(Nc3ccccc3O)C2=O)cc1`: the EC50 was > 11 µM (inactive).

Take `CCOC(=O)C1Nc2ccc(Br)cc2C2C=CCC12` (centres undefined): the EC50 was > 11 µM (inactive).

On to `COC(=O)c1cc(C(=O)OC)cc(-n2c(C)cc(C=O)c2C)c1`, for which the EC50 was > 11 µM (inactive).

For `CSc1ccc(C2C(C(=O)c3ccco3)=C(O)C(=O)N2c2nnc(SC)s2)cc1` (centres undefined), the EC50 is > 11 µM (inactive).

Regarding `Cc1ccc2sc(NNC(=O)c3cc(=O)c4ccccc4o3)nc2c1C`, the EC50 is > 11 µM (inactive).

Take `CC(C)OC(=O)C(C#N)c1nc2ccccc2nc1N1CCCC1` (centres undefined): the EC50 was > 11 µM (inactive).

For the compound `CCOC(=O)c1ccc(CC(=O)c2ccc(O)c(O)c2O)o1`, the EC50 was > 11 µM (inactive).

In the case of `Cc1ccc(N=Nc2c(O)[nH]c3ccc(F)cc23)cc1`, the EC50 is > 11 µM (inactive).

Take `O=C1c2cccc3c(O)ccc(c23)C(=O)N1Cc1ccccc1`: the EC50 was > 11 µM (inactive).

Regarding `Cc1nc(-c2ccc(O)c(O)c2)cs1`, the EC50 was > 11 µM (inactive).

On to `O=C(N/N=C\c1cc([N+](=O)[O-])ccc1N1CCCC1)c1ccccn1`, for which the EC50 is > 11 µM (inactive).

With `O=C(NCCF)C1Nc2ccc(OC(F)(F)F)cc2C2C=CCC12` (centres undefined), the EC50 was > 11 µM (inactive).

With `CCN1CCN(Cc2c(O)ccc3c2O/C(=C\c2ccccc2)C3=O)CC1`, the EC50 is > 11 µM (inactive).

For `Nc1cccc2c1C(=O)N(Cc1nnc(-c3ccccc3Br)o1)C2=O`, the EC50 is > 11 µM (inactive).

With `CC(C)(C)NC(=S)NCCc1ccccc1`, the EC50 was > 11 µM (inactive).

Turning to `Cc1nn2c(N3CCOCC3)c3c(nc2c1-c1ccccc1)CCCC3`, the EC50 is > 11 µM (inactive).

Regarding `O=C(NNC(=O)c1csc(-c2cccnc2)n1)c1ccccc1`, the EC50 is > 11 µM (inactive).

In the case of `O=C(/C=C/N1CCOCC1)c1ccc(-c2ccccc2)cc1`, the EC50 is > 11 µM (inactive).

Turning to `Cc1cc(C)c(-n2c(O)c(/C=N/NC(=O)c3ccncc3)c(=O)[nH]c2=O)c(C)c1`, the EC50 is > 11 µM (inactive).

`CCn1c(CNC(=O)c2ccc(Cl)cc2)nnc1SCC(=O)N1CCOCC1`: the EC50 was > 11 µM (inactive).

On to `N=c1n(CC(=O)c2ccc([N+](=O)[O-])cc2)c2ccccc2n1Cc1ccc(Cl)cc1`, for which the EC50 was > 11 µM (inactive).

In the case of `CCN(CC)S(=O)(=O)c1ccc(N=Cc2c(C)c(C#N)c(=O)n(C)c2O)cc1`, the EC50 is > 11 µM (inactive).

As to `Cc1cc(O)cc2c1C(=O)/C(=C/c1ccco1)O2`, the EC50 is > 11 µM (inactive).

With `CCC(=O)OC1(C)C(=O)C=C2C=C(CCCC(=O)OC)OC=C2C1=O` (centres undefined), the EC50 is > 11 µM (inactive).

Turning to `COc1ccc(NC(=O)Nc2cc(C)cc(C)c2)cn1`, the EC50 was > 11 µM (inactive).

As to `Cc1ccc(C2C3CN(C(C)C)CC=C3C(C#N)=C(N)C2(C#N)C#N)cc1` (centres undefined), the EC50 is > 11 µM (inactive).

As for `O=C(NCc1cccs1)C1CCN(S(=O)(=O)c2ccc(Br)s2)CC1`, the EC50 is > 11 µM (inactive).

As to `CCOC(=O)C1CCN(C(=O)c2ccc3c(c2)NC(=O)/C(=C\c2ccc(C)cc2)S3)CC1`, the EC50 was > 11 µM (inactive).

Take `N#C/C(=C\c1cc(O)c(O)c(O)c1)C(N)=O`: the EC50 was > 11 µM (inactive).

In the case of `C=CCSc1nnc(N2C(=O)C(O)=C(C(=O)c3ccco3)C2c2ccccc2F)s1` (centres undefined), the EC50 was > 11 µM (inactive).

With `CCC(C)[C@@H](N)C(=O)N/N=C/c1cccc2nccnc12` (some centres undefined), the EC50 is > 11 µM (inactive).

As to `CC1=CC(C)(C)N2C(=O)C3(C(C#N)=C(N)OC4=C3C(=O)CC(C)(C)C4)c3c(C)c(C)cc1c32` (centres undefined), the EC50 is > 11 µM (inactive).

`COc1cccc(CN2C(=O)C3(C(C#N)=C(N)OC4=C3C(=O)CCC4)c3ccccc32)c1` (centres undefined): the EC50 is > 11 µM (inactive).

On to `N=c1c(C(=O)NC2CCCCC2)cc2c(=O)n3ccccc3nc2n1Cc1ccc(F)cc1`, for which the EC50 is > 11 µM (inactive).

Consider `COc1cc(C(CCN2CCCC2)c2c(OC)cc(OC)c3c(-c4ccccc4)cc(=O)oc23)cc(OC)c1OC` (centres undefined), for which the EC50 is > 11 µM (inactive).

For `CCOc1ccc(-n2c(O)c(C=Nc3ccc(N(CC)CC)cc3)c(=O)[nH]c2=O)cc1`, the EC50 is > 11 µM (inactive).

`CN1CCc2cc3c(c4c2[C@H]1[C@H](O)c1ccccc1-4)OCO3`: the EC50 was > 11 µM (inactive).

With `COC(=O)CCC(=O)OC1(C)C(=O)C2=CN(CCc3ccccn3)C(c3ccc(OC)cc3)=CC2=C(Br)C1=O` (centres undefined), the EC50 is > 11 µM (inactive).

For `Cc1ccc(NC(=O)/C(C#N)=C/c2ccc(C)s2)c(C)c1`, the EC50 was > 11 µM (inactive).

As to `O=C(/C=C/c1ccc([N+](=O)[O-])o1)NNC(=O)c1ccc(F)cc1`, the concentration giving a half-maximal response (EC50) was 0.232 µM.

For `O=C1C(Cl)=C(Nc2ccccc2O)C(=O)N1c1ccccc1`, the EC50 is > 11 µM (inactive).

Consider `O=C1N=C(N2CCCCC2)S/C1=C/C1=Cc2ccccc2OC1`, for which the EC50 is > 11 µM (inactive).

Turning to `Cc1ccc(C(=O)Oc2oc(-c3ccccc3)nc2C=Nc2ccc(N(C)C)cc2)cc1`, the EC50 was > 11 µM (inactive).

As for `CC1(C)c2[nH]c3ccccc3c2C[C@@H]2C(=O)N(c3ccc(F)cc3F)C(=O)N21`, the EC50 is > 11 µM (inactive).

On to `CCCCOc1cccc(C2C(C(=O)c3ccc(C)o3)=C(O)C(=O)N2c2nnc(C)s2)c1` (centres undefined), for which the EC50 is > 11 µM (inactive).

Regarding `O=C(NC(=S)NNS(=O)(=O)c1ccccc1)c1cccnc1`, the EC50 is > 11 µM (inactive).

Regarding `CCOC(=O)C1Nc2ccc(OC(F)(F)F)cc2C2C=CCC12` (centres undefined), the EC50 was > 11 µM (inactive).

As for `Clc1ccc(C2=CC(c3ccco3)n3ncnc3N2)cc1` (centres undefined), the EC50 is > 11 µM (inactive).

Turning to `COc1ccc(CCn2c(O)c(C=Nc3ccc(NC(C)=O)cc3)c(=O)[nH]c2=O)cc1OC`, the EC50 was > 11 µM (inactive).

Take `CS(=O)(=O)Nc1nc2n(n1)C(c1ccccc1)C=C(c1ccc(Br)cc1)N2` (centres undefined): the EC50 is > 11 µM (inactive).

`Oc1ccc(-c2cnns2)c(O)c1`: the EC50 was > 11 µM (inactive).

For the compound `Cc1ccc(S(=O)(=O)C(C#N)c2nc3ccccc3nc2N2CC(C)OC(C)C2)cc1C` (centres undefined), the EC50 was > 11 µM (inactive).

Consider `N=C1C(c2nc3ccccc3[nH]2)=C(O)CN1c1ccc(CC(=O)O)cc1`, for which the EC50 is > 11 µM (inactive).

As for `Cc1ccc(N=Cc2sc(O)c3ccccc23)c(C)c1`, the EC50 was > 11 µM (inactive).

As to `NC(=S)N=Nc1ccc(NN=C(N)N)cc1`, the EC50 is > 11 µM (inactive).

For the compound `COC(=O)c1[nH]c2cc(OC)c(OC)cc2c1/C=N/Nc1ccccc1`, the EC50 was > 11 µM (inactive).

Consider `CCOc1cccc(=O)c2c(C)n(-c3ccc(C(=O)O)cc3)c(C)c12`, for which the EC50 is > 11 µM (inactive).

For the compound `CCc1cc[n+](-c2nc([O-])sc2C=O)cc1`, the EC50 is > 11 µM (inactive).

For `N#C/C(=C(/O)c1cc2ccccc2o1)c1nc2ccccc2s1`, the EC50 was > 11 µM (inactive).

As for `CN(C)c1ccc(O)c2c1CC1CC3C(N(C)C)C(=O)C(C(N)=O)=C(O)[C@@]3(O)C(=O)C1=C2O` (some centres undefined), the EC50 was 6.49 µM.

Consider `C[C@H]1c2cccc(O)c2C(O)=C2C(=O)[C@]3(O)C(O)=C(C(N)=O)C(=O)[C@@H](N(C)C)[C@@H]3[C@@H](O)[C@@H]21`, for which the EC50 was 4.67 µM.

Turning to `COC(=O)C1=C(C)N(Cc2ccccc2)C(=NCC(C)C)N[C@H]1c1ccccc1`, the EC50 is > 11 µM (inactive).

`CN1/C(=C/C=C(C#N)C#N)C(C)(C)c2ccccc21`: the EC50 was > 11 µM (inactive).

Regarding `Cc1cc(C=O)c(C)n1-c1ccc(Cl)c(C(=O)O)c1`, the EC50 is > 11 µM (inactive).
